# Test results reported in US20040028675A1, “Compositions for the treatment of lupus” (Zarlink Semiconductor AB, priority 2001, published 2004).
# Tests used:
# [1] = target: T1, Kv1.3 channel (Homo sapiens, UniProt P22001); experiment: Screening tests of ion channel function; conditions: screening tests by experts in ion channel function
# [2] = test system: patients with Lupus (Systemic Lupus Erythematosus); experiment: Treatment of patients with Lupus (SLE) with the inventive composition
# [3] = target: T1, Kv1.3 channel; conditions: independently demonstrated; cited from earlier work
# [4] = test system: patients with Lupus (Systemic Lupus Erythematosus); conditions: osteoarthritis or Lupus caused joint inflammation; cited from earlier work
# T1 sequence (P22001 whole entry): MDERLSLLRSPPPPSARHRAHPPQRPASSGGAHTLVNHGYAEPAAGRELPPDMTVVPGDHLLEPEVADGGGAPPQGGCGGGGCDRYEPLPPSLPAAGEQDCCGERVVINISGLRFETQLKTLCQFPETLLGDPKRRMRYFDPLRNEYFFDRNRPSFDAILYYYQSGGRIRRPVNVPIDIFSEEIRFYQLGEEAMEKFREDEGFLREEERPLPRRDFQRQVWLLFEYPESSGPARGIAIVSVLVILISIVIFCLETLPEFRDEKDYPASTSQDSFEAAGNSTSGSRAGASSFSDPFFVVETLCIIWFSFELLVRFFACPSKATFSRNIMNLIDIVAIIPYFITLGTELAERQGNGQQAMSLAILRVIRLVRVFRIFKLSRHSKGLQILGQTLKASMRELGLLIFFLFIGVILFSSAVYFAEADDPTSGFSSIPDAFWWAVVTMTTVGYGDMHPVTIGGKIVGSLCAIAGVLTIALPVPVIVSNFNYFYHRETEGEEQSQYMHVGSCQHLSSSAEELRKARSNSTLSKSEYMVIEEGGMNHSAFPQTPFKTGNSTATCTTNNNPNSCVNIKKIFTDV
molecule,measurement,setting,value
O=c1cc(-c2ccc(O)c(O)c2)oc2cc(O)cc(O)c12 [Luteolin],effectiveness in tests of ion channel function,[1],even more effective than Quercetin
same,effectiveness of the bioflavonoid in the inventive formula (in place of Quercetin),[2]; limited tests,somewhat more effective than Quercetin
O=c1c(O)c(-c2cc(O)c(O)c(O)c2)oc2cc(O)cc(O)c12 [Myricetin],effectiveness of the bioflavonoid in the inventive formula (in place of Quercetin),"[2]; human, in vivo",somewhat effective
O=c1c(O)c(-c2ccc(O)c(O)c2)oc2cc(O)cc(O)c12 [Quercetin],effectiveness in tests of ion channel function,[1],very effective
same,modulating the conduction by the Kv1.3 potassium channel,[3],very effective
Bromelain,"ameliorating joint pain, Bromelain alone",[4],not effective
